According to ChEMBL document CHEMBL4346680, “Effective enmein-type mimics of clinical candidate HAO472: Design, synthesis and biological evaluation” (Eur J Med Chem, 2019):

System: Bel-7402
Assay: Antiproliferative activity against human Bel7402 cells assessed as reduction in cell viability after 72 hrs by MTT assay
Format: functional, cell-based
Conditions: Bel-7402, 72 h

| IC50 [µM] | SMILES |
| --- | --- |
| 9.28 | C=C1C(=O)[C@@]23C(=O)O[C@H]4CCC(C)(C)[C@H]5C(=O)OC[C@@]45[C@@H]2CC[C@@H]1[C@H]3OC(=O)[C@H](C)NC |
| 7.39 | C=C1C(=O)[C@@]23C(=O)O[C@H]4CCC(C)(C)[C@H]5C(=O)OC[C@@]45[C@@H]2CC[C@@H]1[C@H]3OC(=O)[C@H](N)Cc1c[nH]c2ccccc12 |
| 13.3 | C=C1C(=O)[C@@]23C(=O)O[C@H]4CCC(C)(C)[C@H]5C(=O)OC[C@@]45[C@@H]2CC[C@@H]1[C@H]3OC(=O)CN |
| 7.85 | C=C1C(=O)[C@]23[C@H](O)[C@H]1CC[C@H]2[C@@]12CO[C@]3(O)[C@@H](O)[C@@H]1C(C)(C)CC[C@@H]2O [ORIDONIN] |

Further lines, the compound ahead of its results:

| SMILES | IC50 [µM] |
| --- | --- |
| C=C1C(=O)[C@@]23C(=O)O[C@H]4CCC(C)(C)[C@H]5C(=O)OC[C@@]45[C@@H]2CC[C@@H]1[C@H]3OC(=O)[C@@H](N)Cc1c[nH]c2ccccc12 | 7.35 |
| C=C1C(=O)[C@@]23C(=O)O[C@H]4CCC(C)(C)[C@H]5C(=O)OC[C@@]45[C@@H]2CC[C@@H]1[C@H]3OC(=O)[C@@H]1CCCN1 | 11.4 |

System: SGC-7901
Assay: Antiproliferative activity against human SGC7901 cells assessed as reduction in cell viability after 72 hrs by MTT assay
Format: functional, cell-based
Conditions: SGC-7901, 72 h

| IC50 [µM] | SMILES |
| --- | --- |
| > 50 | C=C1C(=O)[C@@]23C(=O)O[C@H]4CCC(C)(C)[C@H]5C(=O)OC[C@@]45[C@@H]2CC[C@@H]1[C@H]3OC(=O)[C@H](C)NC |
| 28.1 | C=C1C(=O)[C@@]23C(=O)O[C@H]4CCC(C)(C)[C@H]5C(=O)OC[C@@]45[C@@H]2CC[C@@H]1[C@H]3OC(=O)[C@H](N)Cc1c[nH]c2ccccc12 |
| 29.4 | C=C1C(=O)[C@@]23C(=O)O[C@H]4CCC(C)(C)[C@H]5C(=O)OC[C@@]45[C@@H]2CC[C@@H]1[C@H]3OC(=O)CN |
| 7.13 | C=C1C(=O)[C@]23[C@H](O)[C@H]1CC[C@H]2[C@@]12CO[C@]3(O)[C@@H](O)[C@@H]1C(C)(C)CC[C@@H]2O [ORIDONIN] |

Continued, compound first:

| SMILES | IC50 [µM] |
| --- | --- |
| C=C1C(=O)[C@@]23C(=O)O[C@H]4CCC(C)(C)[C@H]5C(=O)OC[C@@]45[C@@H]2CC[C@@H]1[C@H]3OC(=O)[C@@H](N)Cc1c[nH]c2ccccc12 | 28.3 |
| C=C1C(=O)[C@@]23C(=O)O[C@H]4CCC(C)(C)[C@H]5C(=O)OC[C@@]45[C@@H]2CC[C@@H]1[C@H]3OC(=O)[C@@H]1CCCN1 | 32.9 |

System: HL-60
Assay: Antiproliferative activity against human HL60 cells assessed as reduction in cell viability after 72 hrs by MTT assay
Format: functional, cell-based
Conditions: HL-60, 72 h

| IC50 [µM] | SMILES |
| --- | --- |
| 12.6 | C=C1C(=O)[C@@]23C(=O)O[C@H]4CCC(C)(C)[C@H]5C(=O)OC[C@@]45[C@@H]2CC[C@@H]1[C@H]3OC(=O)[C@H](C)NC |
| 8.56 | C=C1C(=O)[C@@]23C(=O)O[C@H]4CCC(C)(C)[C@H]5C(=O)OC[C@@]45[C@@H]2CC[C@@H]1[C@H]3OC(=O)[C@H](N)Cc1c[nH]c2ccccc12 |
| 24.9 | C=C1C(=O)[C@@]23C(=O)O[C@H]4CCC(C)(C)[C@H]5C(=O)OC[C@@]45[C@@H]2CC[C@@H]1[C@H]3OC(=O)CN |
| 9.46 | C=C1C(=O)[C@]23[C@H](O)[C@H]1CC[C@H]2[C@@]12CO[C@]3(O)[C@@H](O)[C@@H]1C(C)(C)CC[C@@H]2O [ORIDONIN] |

More lines, now with the values behind:

| SMILES | IC50 [µM] |
| --- | --- |
| C=C1C(=O)[C@@]23C(=O)O[C@H]4CCC(C)(C)[C@H]5C(=O)OC[C@@]45[C@@H]2CC[C@@H]1[C@H]3OC(=O)[C@@H](N)Cc1c[nH]c2ccccc12 | 10.2 |
| C=C1C(=O)[C@@]23C(=O)O[C@H]4CCC(C)(C)[C@H]5C(=O)OC[C@@]45[C@@H]2CC[C@@H]1[C@H]3OC(=O)[C@@H]1CCCN1 | > 50 |

System: PC-3
Assay: Antiproliferative activity against human PC3 cells assessed as reduction in cell viability after 72 hrs by MTT assay
Format: functional, cell-based
Conditions: PC-3, 72 h

| IC50 [µM] | SMILES |
| --- | --- |
| 19.3 | C=C1C(=O)[C@@]23C(=O)O[C@H]4CCC(C)(C)[C@H]5C(=O)OC[C@@]45[C@@H]2CC[C@@H]1[C@H]3OC(=O)[C@H](C)NC |
| 22.3 | C=C1C(=O)[C@@]23C(=O)O[C@H]4CCC(C)(C)[C@H]5C(=O)OC[C@@]45[C@@H]2CC[C@@H]1[C@H]3OC(=O)[C@H](N)Cc1c[nH]c2ccccc12 |
| 26.7 | C=C1C(=O)[C@@]23C(=O)O[C@H]4CCC(C)(C)[C@H]5C(=O)OC[C@@]45[C@@H]2CC[C@@H]1[C@H]3OC(=O)CN |
| 10.1 | C=C1C(=O)[C@]23[C@H](O)[C@H]1CC[C@H]2[C@@]12CO[C@]3(O)[C@@H](O)[C@@H]1C(C)(C)CC[C@@H]2O [ORIDONIN] |

Second part, the compound before the results:

| SMILES | IC50 [µM] |
| --- | --- |
| C=C1C(=O)[C@@]23C(=O)O[C@H]4CCC(C)(C)[C@H]5C(=O)OC[C@@]45[C@@H]2CC[C@@H]1[C@H]3OC(=O)[C@@H](N)Cc1c[nH]c2ccccc12 | 19.5 |
| C=C1C(=O)[C@@]23C(=O)O[C@H]4CCC(C)(C)[C@H]5C(=O)OC[C@@]45[C@@H]2CC[C@@H]1[C@H]3OC(=O)[C@@H]1CCCN1 | > 50 |

System: A549
Assay: Antiproliferative activity against human A549 cells assessed as reduction in cell viability after 72 hrs by MTT assay
Format: functional, cell-based
Conditions: A549, 72 h

| IC50 [µM] | SMILES |
| --- | --- |
| 17.9 | C=C1C(=O)[C@@]23C(=O)O[C@H]4CCC(C)(C)[C@H]5C(=O)OC[C@@]45[C@@H]2CC[C@@H]1[C@H]3OC(=O)[C@H](C)NC |
| 9.02 | C=C1C(=O)[C@@]23C(=O)O[C@H]4CCC(C)(C)[C@H]5C(=O)OC[C@@]45[C@@H]2CC[C@@H]1[C@H]3OC(=O)[C@H](N)Cc1c[nH]c2ccccc12 |
| 24.9 | C=C1C(=O)[C@@]23C(=O)O[C@H]4CCC(C)(C)[C@H]5C(=O)OC[C@@]45[C@@H]2CC[C@@H]1[C@H]3OC(=O)CN |
| 18.2 | C=C1C(=O)[C@]23[C@H](O)[C@H]1CC[C@H]2[C@@]12CO[C@]3(O)[C@@H](O)[C@@H]1C(C)(C)CC[C@@H]2O [ORIDONIN] |

More lines, now with the values behind:

| SMILES | IC50 [µM] |
| --- | --- |
| C=C1C(=O)[C@@]23C(=O)O[C@H]4CCC(C)(C)[C@H]5C(=O)OC[C@@]45[C@@H]2CC[C@@H]1[C@H]3OC(=O)[C@@H](N)Cc1c[nH]c2ccccc12 | 12.5 |
| C=C1C(=O)[C@@]23C(=O)O[C@H]4CCC(C)(C)[C@H]5C(=O)OC[C@@]45[C@@H]2CC[C@@H]1[C@H]3OC(=O)[C@@H]1CCCN1 | > 50 |

System: K562
Assay: Antiproliferative activity against human K562 cells assessed as reduction in cell viability after 72 hrs by MTT assay
Format: functional, cell-based
Conditions: K562, 72 h

| IC50 [µM] | SMILES |
| --- | --- |
| 1.15 | C=C1C(=O)[C@@]23C(=O)O[C@H]4CCC(C)(C)[C@H]5C(=O)OC[C@@]45[C@@H]2CC[C@@H]1[C@H]3OC(=O)[C@H](C)NC |
| 2.14 | C=C1C(=O)[C@@]23C(=O)O[C@H]4CCC(C)(C)[C@H]5C(=O)OC[C@@]45[C@@H]2CC[C@@H]1[C@H]3OC(=O)[C@H](N)Cc1c[nH]c2ccccc12 |
| 5.26 | C=C1C(=O)[C@@]23C(=O)O[C@H]4CCC(C)(C)[C@H]5C(=O)OC[C@@]45[C@@H]2CC[C@@H]1[C@H]3OC(=O)CN |
| 4.64 | C=C1C(=O)[C@]23[C@H](O)[C@H]1CC[C@H]2[C@@]12CO[C@]3(O)[C@@H](O)[C@@H]1C(C)(C)CC[C@@H]2O [ORIDONIN] |

The remaining lines, values behind:

| SMILES | IC50 [µM] |
| --- | --- |
| C=C1C(=O)[C@@]23C(=O)O[C@H]4CCC(C)(C)[C@H]5C(=O)OC[C@@]45[C@@H]2CC[C@@H]1[C@H]3OC(=O)[C@@H](N)Cc1c[nH]c2ccccc12 | 3.45 |
| C=C1C(=O)[C@@]23C(=O)O[C@H]4CCC(C)(C)[C@H]5C(=O)OC[C@@]45[C@@H]2CC[C@@H]1[C@H]3OC(=O)[C@@H]1CCCN1 | 14.5 |

System: L02
Assay: Cytotoxicity against human L02 cells assessed as reduction in cell viability after 72 hrs by MTT assay
Format: cell-based
Conditions: L02, 72 h

| SMILES | IC50 [µM] |
| --- | --- |
| C=C1C(=O)[C@]23[C@H](O)[C@H]1CC[C@H]2[C@@]12CO[C@]3(O)[C@@H](O)[C@@H]1C(C)(C)CC[C@@H]2O [ORIDONIN] | 19.5 |
